Results on 22 compounds are retold here after ChEMBL document CHEMBL3758109, “A novel triazole derivative of betulinic acid induces extrinsic and intrinsic apoptosis in human leukemia HL-60 cells” (Eur J Med Chem, 2016).

Experiment [1] can be described thus: Cytotoxicity against human MIAPaCa2 cells assessed as cell growth inhibition at 10 uM after 48 hrs by MTT assay. The format is functional. Conditions: MIA PaCa-2, 48 h, read-out: GI. For orientation: Tetrazolium dyes change colour on reduction, which living cells bring about.
Experiment [2] can be described thus: Cytotoxicity against human PC3 cells assessed as cell growth inhibition at 10 uM after 48 hrs by MTT assay. In kind it is functional. The following applies: PC-3, 48 h, read-out: GI.
Experiment [3] concerns A549. As to the kind of experiment: Cytotoxicity against human A549 cells assessed as cell growth inhibition at 10 uM after 48 hrs by MTT assay. The format is functional. Conditions: A549, 48 h, read-out: GI.
The nature of experiment [4]: Cytotoxicity against human HL60 cells assessed as cell growth inhibition at 10 uM after 48 hrs by MTT assay. The format is functional. Conditions: HL-60, 48 h, read-out: GI.
For experiment [5], the system named is A549. As to the kind of experiment: Cytotoxicity against human A549 cells assessed as cell growth inhibition after 48 hrs by MTT assay. The following applies: A549, 48 h. The format is functional, cell-based.
A short description of experiment [6]: Cytotoxicity against human PC3 cells assessed as cell growth inhibition after 48 hrs by MTT assay. The format is functional, cell-based. The following applies: PC-3, 48 h.
A short description of experiment [7]: Cytotoxicity against human HL60 cells assessed as cell growth inhibition after 48 hrs by MTT assay. Conditions: HL-60, 48 h. The format is functional, cell-based.
Experiment [8] can be described thus: Cytotoxicity against human MIAPaCa2 cells assessed as cell growth inhibition after 48 hrs by MTT assay. In kind it is functional, cell-based. Conditions: MIA PaCa-2, 48 h.

As to `C=C(C)[C@@H]1CC[C@]2(C(=O)OCc3cn(-c4ccc(NC(=O)c5ccccc5)cc4)nn3)CC[C@]3(C)[C@H](CC[C@@H]4[C@@]5(C)CC[C@H](O)C(C)(C)[C@@H]5CC[C@]43C)[C@@H]12`, the inhibition of growth at 10 µM in experiment [1] came to 0%; in experiment [2], 21%; in experiment [3] it was 2%; in experiment [4], 0%.
As to `C=C(C)[C@@H]1CC[C@]2(C(=O)OCc3cn(-c4cc(F)c(F)cc4Br)nn3)CC[C@]3(C)[C@H](CC[C@@H]4[C@@]5(C)CC[C@H](O)C(C)(C)[C@@H]5CC[C@]43C)[C@@H]12`, the inhibition of growth at 10 µM in experiment [1] is 36%; in experiment [2], 17%; in experiment [3] it was 10%; in experiment [4], 48%. Besides, the concentration for half-maximal inhibition (IC50) – broadly, the point on the concentration scale where inhibition reaches its midpoint – came to 100 µM in experiment [5], 100 µM in experiment [6], 12 µM in experiment [7] and 27 µM in experiment [8].
As to `C=C(C)[C@@H]1CC[C@]2(C(=O)OCc3cn(-c4cccc5c(O)cccc45)nn3)CC[C@]3(C)[C@H](CC[C@@H]4[C@@]5(C)CC[C@H](OCc6cn(-c7cccc8c(O)cccc78)nn6)C(C)(C)[C@@H]5CC[C@]43C)[C@@H]12`, the inhibition of growth at 10 µM in experiment [1] amounted to 19%; in experiment [2], 18%; in experiment [3] it was 18%; in experiment [4], 23%.
In the case of `C=C(C)[C@@H]1CC[C@]2(C(=O)OCc3cn(-c4ccc(OC)cc4)nn3)CC[C@]3(C)[C@H](CC[C@@H]4[C@@]5(C)CC[C@H](O)C(C)(C)[C@@H]5CC[C@]43C)[C@@H]12`, the inhibition of growth at 10 µM came out at 36% in experiment [1], 2% in experiment [2], 13% in experiment [3] and 8% in experiment [4]. The IC50 in experiment [5] was more than 100 µM; in experiment [6], more than 100 µM; in experiment [7], 30 µM; in experiment [8], 22 µM.
As for `C=C(C)[C@@H]1CC[C@]2(C(=O)OCc3cn(-c4cccc([N+](=O)[O-])c4)nn3)CC[C@]3(C)[C@H](CC[C@@H]4[C@@]5(C)CC[C@H](O)C(C)(C)[C@@H]5CC[C@]43C)[C@@H]12`, the inhibition of growth at 10 µM in experiment [1] stood at 9%; in experiment [2], 10%; in experiment [3], 8%; in experiment [4], 21%.
The matching figures for `C=C(C)[C@@H]1CC[C@]2(C(=O)OCc3cn(-c4ccc(OCCC)c(Cl)c4)nn3)CC[C@]3(C)[C@H](CC[C@@H]4[C@@]5(C)CC[C@H](O)C(C)(C)[C@@H]5CC[C@]43C)[C@@H]12`: 3%, 7%, 1% and 23%.
With `C=C(C)[C@@H]1CC[C@]2(C(=O)OCc3cn(-c4ccc(-c5ccccc5)cc4)nn3)CC[C@]3(C)[C@H](CC[C@@H]4[C@@]5(C)CC[C@H](O)C(C)(C)[C@@H]5CC[C@]43C)[C@@H]12`, the inhibition of growth at 10 µM in experiment [1] came to 10%; in experiment [2], 10%; in experiment [3], 5%; in experiment [4], 13%.
Regarding `C=C(C)[C@@H]1CC[C@]2(C(=O)OCc3cn(-c4cccc(OC)c4OC)nn3)CC[C@]3(C)[C@H](CC[C@@H]4[C@@]5(C)CC[C@H](O)C(C)(C)[C@@H]5CC[C@]43C)[C@@H]12`, the inhibition of growth at 10 µM was determined as 30% in experiment [1], 49% in experiment [2], 48% in experiment [3] and 58% in experiment [4].
Consider `C=C(C)[C@@H]1CC[C@]2(C(=O)OCc3cn(-c4ccc(F)cc4)nn3)CC[C@]3(C)[C@H](CC[C@@H]4[C@@]5(C)CC[C@H](OCc6cn(-c7ccc(F)cc7)nn6)C(C)(C)[C@@H]5CC[C@]43C)[C@@H]12`, for which the inhibition of growth at 10 µM in experiment [1] stood at 7%; in experiment [2], 8%; in experiment [3], 11%; in experiment [4], 13%.
For `C=C(C)[C@@H]1CC[C@]2(C(=O)OCc3cn(-c4cc(C)ccc4C)nn3)CC[C@]3(C)[C@H](CC[C@@H]4[C@@]5(C)CC[C@H](O)C(C)(C)[C@@H]5CC[C@]43C)[C@@H]12`, the inhibition of growth at 10 µM in experiment [1] stood at 38%; in experiment [2] it was 44%; in experiment [3], 41%; in experiment [4], 51%.
For the compound `C=C(C)[C@@H]1CC[C@]2(C(=O)OCc3cn(-c4ccccc4C#N)nn3)CC[C@]3(C)[C@H](CC[C@@H]4[C@@]5(C)CC[C@H](O)C(C)(C)[C@@H]5CC[C@]43C)[C@@H]12`, the inhibition of growth at 10 µM in experiment [1] amounted to 4%; in experiment [2], 6%; in experiment [3] it was 9%; in experiment [4] it was 22%.
With `C=C(C)[C@@H]1CC[C@]2(C(=O)OCc3cn(/C=C/c4ccccc4)nn3)CC[C@]3(C)[C@H](CC[C@@H]4[C@@]5(C)CC[C@H](O)C(C)(C)[C@@H]5CC[C@]43C)[C@@H]12`, the inhibition of growth at 10 µM in experiment [1] is 35%; in experiment [2] it was 8%; in experiment [3] it was 47%; in experiment [4], 20%.
Take `C=C(C)[C@@H]1CC[C@]2(C(=O)OCc3cn(-c4ccc5ccccc5c4)nn3)CC[C@]3(C)[C@H](CC[C@@H]4[C@@]5(C)CC[C@H](O)C(C)(C)[C@@H]5CC[C@]43C)[C@@H]12`: the inhibition of growth at 10 µM was 6% in experiment [1], 7% in experiment [2], 1% in experiment [3] and 18% in experiment [4].
As for `C=C(C)[C@@H]1CC[C@]2(C(=O)OCc3cn(-c4ccc5oc6ccccc6c5c4)nn3)CC[C@]3(C)[C@H](CC[C@@H]4[C@@]5(C)CC[C@H](O)C(C)(C)[C@@H]5CC[C@]43C)[C@@H]12`, the inhibition of growth at 10 µM in experiment [1] was 7%; in experiment [2] it was 4%; in experiment [3] it was 5%; in experiment [4] it was 14%.
For the compound `C=C(C)[C@@H]1CC[C@]2(C(=O)OCc3cn(-c4cccc(OCc5ccc(F)cc5)c4)nn3)CC[C@]3(C)[C@H](CC[C@@H]4[C@@]5(C)CC[C@H](O)C(C)(C)[C@@H]5CC[C@]43C)[C@@H]12`, the inhibition of growth at 10 µM in experiment [1] was determined as 9%; in experiment [2], 4%; in experiment [3], 6%; in experiment [4], 32%.
`C#CCOC(=O)[C@]12CC[C@@H](C(=C)C)[C@@H]1[C@H]1CC[C@@H]3[C@@]4(C)CC[C@H](O)C(C)(C)[C@@H]4CC[C@@]3(C)[C@]1(C)CC2`: the inhibition of growth at 10 µM was determined as 20% in experiment [1], 46% in experiment [2], 41% in experiment [3] and 50% in experiment [4].
Taken in the same sequence, the figures for `C=C(C)[C@@H]1CC[C@]2(C(=O)OCc3cn(-c4ccc(C)cc4)nn3)CC[C@]3(C)[C@H](CC[C@@H]4[C@@]5(C)CC[C@H](O)C(C)(C)[C@@H]5CC[C@]43C)[C@@H]12` were 34%, 67%, 52% and 56%.
`C=C(C)[C@@H]1CC[C@]2(C(=O)OCc3cn(-c4ccc(C=O)cc4)nn3)CC[C@]3(C)[C@H](CC[C@@H]4[C@@]5(C)CC[C@H](O)C(C)(C)[C@@H]5CC[C@]43C)[C@@H]12`: the inhibition of growth at 10 µM in experiment [1] turned out to be 7%; in experiment [2] it was 9%; in experiment [3], 4%; in experiment [4] it was 21%.
As to `C=C(C)[C@@H]1CC[C@]2(C(=O)OCc3cn(-c4c(F)ccc(OC)c4Br)nn3)CC[C@]3(C)[C@H](CC[C@@H]4[C@@]5(C)CC[C@H](O)C(C)(C)[C@@H]5CC[C@]43C)[C@@H]12`, the inhibition of growth at 10 µM in experiment [1] was 7%; in experiment [2], 5%; in experiment [3], 7%; in experiment [4] it was 12%.
`C=C(C)[C@@H]1CC[C@]2(C(=O)OCc3cn(-c4ccccc4C#N)nn3)CC[C@]3(C)[C@H](CC[C@@H]4[C@@]5(C)CC[C@H](OCc6cn(-c7ccccc7C#N)nn6)C(C)(C)[C@@H]5CC[C@]43C)[C@@H]12`: the inhibition of growth at 10 µM in experiment [1] was 23%; in experiment [2] it was 15%; in experiment [3], 0%; in experiment [4] it was 12%.
As for `C=C(C)[C@@H]1CC[C@]2(C(=O)OCc3cn(-c4cccc5c(O)cccc45)nn3)CC[C@]3(C)[C@H](CC[C@@H]4[C@@]5(C)CC[C@H](O)C(C)(C)[C@@H]5CC[C@]43C)[C@@H]12`, the inhibition of growth at 10 µM in experiment [1] is 3%; in experiment [2], 5%; in experiment [3], 7%; in experiment [4], 26%.
`C=C(C)[C@@H]1CC[C@]2(C(=O)OCc3cn(-c4ccc(C(C)(C)C)cc4)nn3)CC[C@]3(C)[C@H](CC[C@@H]4[C@@]5(C)CC[C@H](O)C(C)(C)[C@@H]5CC[C@]43C)[C@@H]12`: the inhibition of growth at 10 µM in experiment [1] was determined as 9%; in experiment [2], 9%; in experiment [3], 9%; in experiment [4], 11%.
